From US8609653B2, “Azaindole compounds and methods for treating HIV” (priority 2011, dated 2013)
Structures can show the parent of a compound that is named as a salt.

test system: HIV; assay: MT4 assay: antiviral HIV activity in MT-4 cells; format: cell-based; settings: Human immunodeficiency virus 1, MT4, 96 h, read-out: HIV MT4 Assay IC50 (μM), HTLV-1 transformed cell line MT-4; read-out 96 hours later with cell titer glo; 10 point dose response
Protocol: Antiviral HIV activity and cytotoxicity values for compounds of the invention from Table 1 were measured in parallel in the HTLV-1 transformed cell line MT-4 based on the method previously described (Hazen et al., 2007, In vitro antiviral activity of the novel, tyrosyl-based human immunodeficiency virus (HIV) type 1 protease inhibitor brecanavir (GW640385) in combination with other antiretrovirals and against a panel of protease inhibitor-resistant HIV (Hazen et al., “In vitro antiviral activity of the novel, tyrosyl-based human immunodeficiency virus (HIV) type 1 protease inhibitor brecanavir (GW640385) in combination with other antiretrovirals and against a panel of protease inhibitor-resistant HIV”, Antimicrob. Agents Chemother. 2007, 51: 3147-3154; and Pauwels et al., “Sensitive and rapid assay on MT-4 cells for the detection of antiviral compounds against the AIDS virus”, J. of Virological Methods 1987, 16: 171-185).
Luciferase activity was measured 96 hours later by adding a cell titer glo (Promega, Madison, Wis.). Percent inhibition of cell protection data was plotted relative to no compound control. Under the same condition, cytotoxicity of the compounds was determined using cell titer Glo™ (Promega, Madison, Wis.). IC50s were determined from a 10 point dose response curve using 3-4-fold serial dilution for each compound, which spans a concentration range>1000 fold.
These values are plotted against the molar compound concentrations using the standard four parameter logistic equation: y=((Vmax*x^n)/(K^n+x^n))+Y2
Y2=minimum y n=slope factor
Vmax=maximum y x=compound concentration [M]

In order of falling IC50:
1. Cc1ccc(-c2c([C@@H](OC(C)(C)C)C(=O)O)c(C)nc3c2ccn3Cc2ccc(F)cc2F)cc1 [Example 36, (R)-2-(tert-butoxy)-2-(1-(2,4-difluorobenzyl)-6-methyl-4-(p-tolyl)-1H-pyrrolo[2,3-b]pyridin-5-yl)acetic acid]  50 µM
2. Cc1nc2c(ccn2Cc2ccc(F)cc2Cl)c(-c2ccc3c(c2)CCCO3)c1[C@@H](OC(C)(C)C)C(=O)O [Example 47, (R)-2-(tert-butoxy)-2-(1-(2-chloro-4-fluorobenzyl)-4-(chroman-6-yl)-6-methyl-1H-pyrrolo[2,3-b]pyridin-5-yl)acetic acid]  50 µM
3. Cc1nc2c(ccn2CC2CCN(C(=O)OC(C)(C)C)CC2)c(-c2ccc3c(c2)CCCO3)c1C(OC(C)(C)C)C(=O)O (stereo not drawn) [Example 66, 2-(tert-butoxy)-2-(1-((1-(tert-butoxycarbonyl)piperidin-4-yl)methyl)-4-(chroman-6-yl)-6-methyl-1H-pyrrolo[2,3-b]pyridin-5-yl)acetic acid]  7.34 µM
4. Cc1ccc(-c2c(C(OC(C)(C)C)C(=O)O)c(C)nc3c2ccn3CCOCc2ccccc2)cc1 (stereo not drawn) [Example 79, 2-(1-(2-(benzyloxy)ethyl)-6-methyl-4-(p-tolyl)-1H-pyrrolo[2,3-b]pyridin-5-yl)-2-(tert-butoxy)acetic acid]  4.87 µM
5. Cc1nc2c(ccn2[C@@H](C)c2ccc(F)cc2)c(-c2ccc3c(c2)CCCO3)c1[C@H](OC(C)(C)C)C(=O)O [Example 85, (S)-2-(tert-butoxy)-2-(4-(chroman-6-yl)-1-((S)-1-(4-fluorophenyl)ethyl)-6-methyl-1H-pyrrolo[2,3-b]pyridin-5-yl)acetic acid]  0.955 µM
6. Cc1ccc(-c2c(C(OC(C)(C)C)C(=O)O)c(C)nc3c2ccn3CC(C)(C)C)cc1 (stereo not drawn) [Example 76, 2-(tert-butoxy)-2-(6-methyl-1-neopentyl-4-(p-tolyl)-1H-pyrrolo[2,3-b]pyridin-5-yl)acetic acid]  0.9 µM
7. COc1ccc(-c2c([C@H](OC(C)(C)C)C(=O)O)c(C)nc3c2ccn3Cc2ccc(F)c(F)c2)cc1C [Example 103, (S)-2-(tert-Butoxy)-2-(1-(3,4-difluorobenzyl)-4-(4-methoxy-3-methylphenyl)-6-methyl-1H-pyrrolo[2,3-b]pyridin-5-yl)acetic acid]  0.81 µM
8. Cc1nc2c(ccn2Cc2ccc(F)cc2)c(-c2ccc(Cl)cc2F)c1C(OC(C)(C)C)C(=O)O (stereo not drawn) [Example 90, 2-(tert-Butoxy)-2-(4-(4-chloro-2-fluorophenyl)-1-(4-fluorobenzyl)-6-methyl-1H-pyrrolo[2,3-b]pyridin-5-yl)acetic acid]  0.48 µM
9. Cc1nc2c(c(-c3ccc4c(c3C)CCCO4)c1[C@H](OC(C)(C)C)C(=O)O)CCN2 (atropisomer, axis not shown; (M)) [Example 108, (2S)(M)-2-(tert-Butoxy)-2-(6-methyl-4-(5-methylchroman-6-yl)-2,3-dihydro-1H-pyrrolo[2,3-b]pyridin-5-yl)acetic acid]  0.44 µM
10. COc1cccc(Cn2ccc3c(-c4ccc5c(c4)CCCO5)c(C(OC(C)(C)C)C(=O)O)c(C)nc32)c1 (stereo not drawn) [Example 61, 2-(tert-butoxy)-2-(4-(chroman-6-yl)-1-(3-methoxybenzyl)-6-methyl-1H-pyrrolo[2,3-b]pyridin-5-yl)acetic acid]  0.41 µM
11. Cc1nc2c(ccn2Cc2ccc(F)c(F)c2)c(-c2ccc(F)cc2)c1[C@H](OC(C)(C)C)C(=O)O [Example 102, (S)-2-(tert-Butoxy)-2-(1-(3,4-difluorobenzyl)-4-(4-fluorophenyl)-6-methyl-1H-pyrrolo[2,3-b]193pyridine-5-yl)acetic acid]  0.367 µM
12. Cc1ccc(-c2c(C(OC(C)(C)C)C(=O)O)c(C)nc3c2ccn3Cc2ccccc2)cc1 (stereo not drawn) [Example 19, 2-(1-benzyl-6-methyl-4-(p-tolyl)-1H-pyrrolo[2,3-b]pyridin-5-yl)-2-(tert-butoxy)acetic acid]  0.17 µM
13. Cc1nc2c(ccn2Cc2ccc(F)c(F)c2)c(C2=CCCCC2)c1[C@H](OC(C)(C)C)C(=O)O [Example 120, (S)-2-(tert-butoxy)-2-(4-(cyclohex-1-en-1-yl)-1-(3,4-difluorobenzyl)-6-methyl-1H-pyrrolo[2,3-b]pyridin-5-yl)acetic acid]  0.15 µM
14. Cc1nc2c(ccn2Cc2cc(F)ccc2F)c(-c2ccc3c(c2)CCCO3)c1C(OC(C)(C)C)C(=O)O (stereo not drawn) [Example 33, 2-(tert-butoxy)-2-(4-(chroman-6-yl)-1-(2,5-difluorobenzyl)-6-methyl-1H-pyrrolo[2,3-b]pyridin-5-yl)acetic acid]  0.096 µM
15. Cc1ccc(-c2c([C@H](OC(C)(C)C)C(=O)O)c(C)nc3c2ccn3Cc2ccc(F)c(F)c2)c(C)c1 (atropisomer, axis not shown; (M)) [Example 101, (2S)(M)-2-(tert-butoxy)-2-(1-(3,4-difluorobenzyl)-4-(2,4-dimethylphenyl)-6-methyl-1H-pyrrolo[2,3-b]pyridin-5-yl)acetic acid]  0.09 µM
16. Cc1nc2c(ccn2Cc2ccc(F)c(F)c2)c(-c2ccc3c(c2)CCCO3)c1C(OC(C)(C)C)C(=O)O (stereo not drawn) [Example 11, 2-(tert-butoxy)-2-(4-(chroman-6-yl)-1-(3,4-difluorobenzyl)-6-methyl-1H-pyrrolo[2,3-b]pyridin-5-yl)acetic acid]  0.09 µM
17. Cc1nc2c(ccn2Cc2ccc(F)c(F)c2)c(C2=CCC(C)(C)CC2)c1[C@H](OC(C)(C)C)C(=O)O [Example 114, (S)-2-(tert-butoxy)-2-(1-(3,4-difluorobenzyl)-4-(4,4-dimethylcyclohex-1-en-1-yl)-6-methyl-1H-pyrrolo[2,3-b]pyridin-5-yl)acetic acid]  0.08 µM
18. Cc1nc2c(ccn2Cc2cc(F)ccc2F)c(-c2ccc3c(c2)CCCO3)c1[C@H](OC(C)(C)C)C(=O)O [Example 58, (S)-2-(tert-butoxy)-2-(4-(chroman-6-yl)-1-(2,5-difluorobenzyl)-6-methyl-1H-pyrrolo[2,3-b]pyridin-5-yl)acetic acid]  0.08 µM
19. Cc1nc2c(ccn2C)c(-c2cc(F)c3c(c2C)CCCO3)c1[C@H](OC(C)(C)C)C(=O)O (atropisomer, axis not shown; (M)) [Example 131, (2S)(M)-2-(tert-butoxy)-2-(4-(8-fluoro-5-methylchroman-6-yl)-1,6-dimethyl-1H-pyrrolo[2,3-b]pyridin-5-yl)acetic acid, Trifluoroacetic acid salt]  0.055 µM
20. Cc1nc2c(ccn2Cc2c(F)cc(F)cc2F)c(-c2ccc3c(c2)CCCO3)c1C(OC(C)(C)C)C(=O)O (stereo not drawn) [Example 44, 2-(tert-butoxy)-2-(4-(chroman-6-yl)-6-methyl-1-(2,4,6-trifluorobenzyl)-1H-pyrrolo[2,3-b]pyridin-5-yl)acetic acid]  0.053 µM
21. Cc1nc2c(ccn2Cc2ccc(F)cc2Cl)c(-c2ccc3c(c2)CCCO3)c1C(OC(C)(C)C)C(=O)O (stereo not drawn) [Example 31, 2-(tert-butoxy)-2-(1-(2-chloro-4-fluorobenzyl)-4-(chroman-6-yl)-6-methyl-1H-pyrrolo[2,3-b]pyridin-5-yl)acetic acid]  0.04 µM
22. Cc1nc2c(ccn2Cc2c(Cl)cccc2Cl)c(-c2ccc3c(c2)CCCO3)c1C(OC(C)(C)C)C(=O)O (stereo not drawn) [Example 50, 2-(tert-butoxy)-2-(4-(chroman-6-yl)-1-(2,6-dichlorobenzyl)-6-methyl-1H-pyrrolo[2,3-b]pyridin-5-yl)acetic acid]  0.035 µM
23. Cc1nc2c(ccn2Cc2ccc(F)cc2Cl)c(-c2ccc3c(c2)CCCO3)c1[C@H](OC(C)(C)C)C(=O)O [Example 48, (S)-2-(tert-butoxy)-2-(1-(2-chloro-4-fluorobenzyl)-4-(chroman-6-yl)-6-methyl-1H-pyrrolo[2,3-b]pyridin-5-yl)acetic acid]  0.03 µM
24. Cc1ccc(-c2c([C@H](OC(C)(C)C)C(=O)O)c(C)nc3c2ccn3Cc2ccc(F)c(F)c2)c(F)c1 [Example 115, (2S)-2-(tert-Butoxy)-2-(1-(3,4-difluorobenzyl)-4-(2-fluoro-4-methylphenyl)-6-methyl-1H-pyrrolo[2,3-b]pyridin-5-yl)acetic acid]  0.029 µM
25. Cc1nc2c(ccn2Cc2cccc(F)c2F)c(-c2ccc3c(c2)CCCO3)c1[C@H](OC(C)(C)C)C(=O)O [Example 57, (S)-2-(tert-butoxy)-2-(4-(chroman-6-yl)-1-(2,3-difluorobenzyl)-6-methyl-1H-pyrrolo[2,3-b]pyridin-5-yl)acetic acid]  0.027 µM
26. Cc1nc2c(c(-c3ccc4c(c3C)CCCO4)c1[C@H](OC(C)(C)C)C(=O)O)CCN2Cc1ccc(F)c(F)c1 [Example 107, (2S)(M)-2-(tert-Butoxy)-2-(1-(3,4-difluorobenzyl)-6-methyl-4-(5-methylchroman-6-yl)-2,3-dihydro-1H-pyrrolo[2,3-b]pyridin-5-yl)acetic acid, Trifluoroacetic acid salt]  0.008 µM

same assay, conditions: read-out: HIV MT4 Assay IC50; HTLV-1 transformed cell line MT-4; read-out 96 hours later with cell titer glo; 10 point dose response

In the case of `Cc1nc2c(ccn2C(C)c2ccc(F)c(F)c2)c(-c2ccc3c(c2)CCCO3)c1C(OC(C)(C)C)C(=O)O` (stereo not drawn) [Example 72, 2-(tert-butoxy)-2-(4-(chroman-6-yl)-1-(1-(3,4-difluorophenyl)ethyl)-6-methyl-1H-pyrrolo[2,3-b]pyridin-5-yl)acetic acid], the IC50 is reported as 0.19 µM.
